# Source: ChEMBL document CHEMBL1139918, “Novel series of substituted biphenylmethyl urea derivatives as MCH-R1 antagonists for the treatment of obesity” (Bioorg Med Chem, 2007)
# Key:
# [1] = biological target: T1, Melanin-concentrating hormone receptor 1 (Homo sapiens, UniProt Q99705); experiment: Displacement of [3H]SNAP from human MCH1 receptor expressed in HEK cells; format: cell-based, HEK293
# [2] = biological target: T1, Melanin-concentrating hormone receptor 1; conditions: HEK293
# Description: Antagonist activity at human MCH1 receptor expressed in HEK cells after 45 mins by [35S]GTP-gamma-S binding assay
# 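Throughout, for pKb: antagonism measured by [35S]GTPγS binding in HEK cells carrying human MCH1 receptor, 45 min incubation.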
# T1 sequence (Q99705 whole entry): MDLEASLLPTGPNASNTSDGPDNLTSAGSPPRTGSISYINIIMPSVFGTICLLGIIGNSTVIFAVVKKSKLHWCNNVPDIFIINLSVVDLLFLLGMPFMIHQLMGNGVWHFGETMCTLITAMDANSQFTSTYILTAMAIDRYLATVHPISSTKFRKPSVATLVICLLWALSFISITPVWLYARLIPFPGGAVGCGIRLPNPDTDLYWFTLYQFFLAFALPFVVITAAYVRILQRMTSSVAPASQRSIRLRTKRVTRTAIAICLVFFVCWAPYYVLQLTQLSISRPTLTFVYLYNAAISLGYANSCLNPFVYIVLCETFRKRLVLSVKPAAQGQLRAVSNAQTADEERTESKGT
SMILES,Ki ([1]; read-out: Ki) [µM],pKb [2],Ki ([1]; read-out: Log Ki (converted)) [µM]
CCC(COC(C)=O)(COC(C)=O)NC(=O)N(CCC1CCN(Cc2ccc(C)cc2)CC1)Cc1ccc(-c2cccc(C#N)c2)cc1,1.08,–,–
COc1ccc(-c2ccc(CN(CCC3CCN(Cc4ccc(C)cc4)CC3)C(=O)NC(C)(C)COC(C)=O)cc2)cc1,0.595,6.19,–
COc1ccccc1-c1ccc(CN(CC(=O)C(C)(C)O)C(=O)NC2CCN(Cc3ccc(C)cc3)CC2)cc1,6.05,5.43,–
COc1ccc(-c2ccc(CNC(=O)NC3CCN(Cc4ccc(C)cc4)CC3)cc2)cc1,1.46,6.36,–
Cc1ccc(CN2CCC(NC(=O)NCc3ccc(-c4ccc(F)cc4)cc3)CC2)cc1,0.545,6.71,0.543
Cc1ccc(CN2CCC(NC(=O)N(CC(=O)C(C)(C)O)Cc3ccc(-c4ccc(F)cc4)cc3)CC2)cc1,5.86,5.34,–
COc1ccccc1-c1ccc(CNC(=O)NC2CCN(Cc3ccc(C)cc3)CC2)cc1,0.425,6.19,–
CC(=O)OCC(C)(C)NC(=O)N(CCC1CCN(Cc2ccc(C)cc2)CC1)Cc1ccc(-c2ccccc2)cc1,0.947,6.43,–
Cc1ccc(CN2CCC(NC(=O)NCc3ccc(-c4ccccc4)cc3)CC2)cc1,2.64,5.97,2.66
CCC(CO)(CO)NC(=O)N(CCC1CCN(Cc2ccc(C)cc2)CC1)Cc1ccc(-c2cccc(C#N)c2)cc1,0.769,5.41,–
CCC(COC(C)=O)(COC(C)=O)NC(=O)N(CCC1CCN(Cc2ccc(C)cc2)CC1)Cc1ccc(-c2ccccc2OC)cc1,1.2,–,–
Cc1ccc(CN2CCC(NC(=O)N(CC(=O)C(C)(C)O)Cc3ccc(-c4cccc(C#N)c4)cc3)CC2)cc1,6.38,5.3,–
COc1ccc(-c2ccc(CN(CC(=O)C(C)(C)O)C(=O)NC3CCN(Cc4ccc(C)cc4)CC3)cc2)cc1,–,< 5,–
Cc1ccc(CN2CCC(CCN(Cc3ccc(-c4cccc(C#N)c4)cc3)C(=O)NC(C)C)CC2)cc1,0.509,6,–
COc1ccccc1-c1ccc(CN(CCC2CCN(Cc3ccc(C)cc3)CC2)C(=O)NC(C)C)cc1,–,< 5,–

# More lines, in order of falling Ki ([1]; read-out: Ki), values ahead:
Ki ([1]; read-out: Ki) [µM],pKb [2],Ki ([1]; read-out: Log Ki (converted)) [µM],SMILES
0.421,6.39,–,CC(=O)OCC(C)(C)NC(=O)N(CCC1CCN(Cc2ccc(C)cc2)CC1)Cc1ccc(-c2ccc(F)cc2)cc1
0.388,6.58,–,CCC(COC(C)=O)(COC(C)=O)NC(=O)N(CCC1CCN(Cc2ccc(C)cc2)CC1)Cc1ccc(-c2ccccc2)cc1
0.314,6.42,0.313,Cc1ccc(CN2CCC(CCN(Cc3ccc(-c4ccc(F)cc4)cc3)C(=O)NC(C)C)CC2)cc1
0.273,6.33,–,COc1ccc(-c2ccc(CN(CCC3CCN(Cc4ccc(C)cc4)CC3)C(=O)NC(C)C)cc2)cc1
0.258,–,–,Cc1ccc(CN2CCC(CCN(Cc3ccc(-c4ccccc4)cc3)C(=O)NC(C)C)CC2)cc1
0.254,6.63,–,CC(=O)OCC(C)(C)NC(=O)N(CCC1CCN(Cc2ccc(C)cc2)CC1)Cc1ccc(-c2cccc(C#N)c2)cc1
0.251,6.88,–,COc1ccccc1-c1ccc(CN(CCC2CCN(Cc3ccc(C)cc3)CC2)C(=O)NC(C)(C)CO)cc1
0.215,6.14,–,COc1ccccc1-c1ccc(CN(CCC2CCN(Cc3ccc(C)cc3)CC2)C(=O)NC(C)(C)COC(C)=O)cc1
0.214,6.71,–,CCC(COC(C)=O)(COC(C)=O)NC(=O)N(CCC1CCN(Cc2ccc(C)cc2)CC1)Cc1ccc(-c2ccc(F)cc2)cc1
0.204,7.06,–,COc1ccc(-c2ccc(CN(CCC3CCN(Cc4ccc(C)cc4)CC3)C(=O)NC(C)(C)CO)cc2)cc1
0.186,6.38,–,Cc1ccc(CN2CCC(NC(=O)NCc3ccc(-c4cccc(C#N)c4)cc3)CC2)cc1
0.173,6.83,–,CCC(CO)(CO)NC(=O)N(CCC1CCN(Cc2ccc(C)cc2)CC1)Cc1ccc(-c2ccccc2)cc1
0.17,6.86,–,CCC(COC(C)=O)(COC(C)=O)NC(=O)N(CCC1CCN(Cc2ccc(C)cc2)CC1)Cc1ccc(-c2ccc(OC)cc2)cc1
0.167,6.65,–,CCC(CO)(CO)NC(=O)N(CCC1CCN(Cc2ccc(C)cc2)CC1)Cc1ccc(-c2ccccc2OC)cc1
0.149,6.54,–,CCC(CO)(CO)NC(=O)N(CCC1CCN(Cc2ccc(C)cc2)CC1)Cc1ccc(-c2ccc(F)cc2)cc1
0.144,6.2,–,Cc1ccc(CN2CCC(CCN(Cc3ccc(-c4ccccc4)cc3)C(=O)NC(C)(C)CO)CC2)cc1
0.143,6.93,–,CCC(CO)(CO)NC(=O)N(CCC1CCN(Cc2ccc(C)cc2)CC1)Cc1ccc(-c2ccc(OC)cc2)cc1
0.0966,7.38,–,Cc1ccc(CN2CCC(CCN(Cc3ccc(-c4ccc(F)cc4)cc3)C(=O)NC(C)(C)CO)CC2)cc1
0.043,7.08,–,Cc1ccc(CN2CCC(CCN(Cc3ccc(-c4cccc(C#N)c4)cc3)C(=O)NC(C)(C)CO)CC2)cc1
